Reference: patent publication US20260174860A1, “HYBRID COMPOUNDS OF SCLAREOL AND DOXORUBICIN, THEIR SYNTHESIS AND APPLICATION” (INSTITUTE FOR BIOLOGICAL RESEARCH "SINISA STANKOVIC" - …, priority 2023, published 2026)

Key:
[1] = system: spheroids of ovarian cancer cell lines that are resistant to DOX; details: effect of SC; cited from earlier work
[2] = system: P-glycoprotein-deficient NCI-H460 cells; assay: DOX and rhodamine 123 accumulation test, flow cytometry; assay type: cell-based, human; details: 50 μM SC
Method: • a) First, DOX accumulation test was performed on three glioblastoma cell lines, U87, U87-TxR, and U251. Cells were trypsinized and counted, and then 100,000 cells per sample were collected in a tube for flow cytometry and resuspended in 500 μL of culture medium. Cells were treated with 20 μM and 50 µM SC. Immediately after SC treatment, cells were treated with 20 μM DOX, and samples were incubated at 37° C. in a humid atmosphere with 5% CO2 for 60 min. After the accumulation period, the samples were centrifuged, washed twice with cold Phosphate Buffered Saline (PBS), and finally resuspended in 1 mL of PBS. The fluorescence of the samples was read on the FL2 (red channel) of a cytofluorimeter (Partec, Munster, Germany), and the results were analyzed with the software package Summit 4.3. • b) Secondly, DOX and rhodamine 123 accumulation test was performed on non-small cell lung carcinoma cell lines NCI-H460 and NCI-H460/R. Cells were trypsinized and counted, and then 100,000 cells per sample were collected in a tube for flow cytometry and resuspended in 500 μl of culture medium. Cells were treated with 50 μM SC. Immediately after treatment, 5 μM Rho123 was added to one group of samples and the other 20 μM DOX. […] The samples were analyzed using a flow cytometer, reading for rhodamine 123 on FL1 (green channel) and DOX on FL2 (red channel). […]

[3] = Zetasizer measurement of size, polydispersity and zeta potential; assay type: physicochemical; details: 25° C., diluted 100 times with ultrapure water, mean of three
Method: The Malvern Zetasizer Nano ZS (Malvern Instruments, United Kingdom) was used to analyze the physico-chemical stability characteristics of conjugates. The measurement range was from 0.6 nm up to […]. The mean size of conjugates, the polydispersity index (PDI) and zeta potential were measured. All measurements were taken at a temperature of 25° C. and each sample was diluted 100 times with ultrapure water. The measurements were repeated three times, and the results were presented as the mean value. PDI is a parameter used to define the size range of particles. The term “polydispersity” (or “dispersity” as recommended by IUPAC) describes the degree of non-uniformity of a size distribution of particles. Zeta potential represents the surface charge of nanoparticles and indicates their long-term stability.

| Compound | accumulation of DOX in spheroids [1] | increase of the cytotoxicity of DOX [1] [times] | DOX or rhodamine 123 accumulation [2] | Z-Average [3] [nm·days] |
| --- | --- | --- | --- | --- |
| C=C[C@](C)(O)CC[C@@H]1[C@@]2(C)CCCC(C)(C)[C@@H]2CC[C@@]1(C)O [SC, sclareol] | did not enhance | 4.5 | did not show any increase | – |
| N1-((25,3S,4S,6R)-3-hydroxy-2-methyl-6-(((1S,3S)-3,5,12-trihydroxy-3-(2-hydroxyacetyl)-10-methoxy-6,11-dioxo-1,2,3,4,6,11-hexahydrotetracen-1-yl)oxy)tetrahydro-2H-pyran-4-yl)-N4-(3-((4-((R,E)-3-hydroxy-5-((1R,2R,4aS,8aS)-2-hydroxy-2,5,5,8a-tetramethyldecahydronaphthalen-1-yl)-3-methylpent-1-en-1-yl)benzyl)amino)propyl) succinamide [CON1] | – | – | – | 189.4 ± 9.7 |
